Here are results for 29 compounds from ChEMBL document CHEMBL1275320, “Positive allosteric modulators of the α-amino-3-hydroxy-5-methyl-4-isoxazolepropionic acid (AMPA) receptor” (J Med Chem, 2010).

One assay deals with Glutamate receptor 1 (Homo sapiens, UniProt P42261). Put plainly: Inhibition of GluR1 expressed in HEK cells. Type of assay: cell-based, HEK293.
Assay [1] is described as follows: Agonist activity at AMPA receptor in rat cortical neurons assessed as change in increase in AMPA current. In kind it is functional.
Assay [2] addresses Glutamate receptor AMPA 3/4 (Homo sapiens, UniProt P42263+P48058). Briefly: Inhibition of GluR3/4 expressed in Xenopus oocyte.
The target in assay [3] is T1, Glutamate receptor 2 (Homo sapiens, UniProt P42262). Briefly: Inhibition of GluR2 expressed in HEK cells at 3 uM. In kind it is cell-based. The settings on record: HEK293.
Assay [4] deals with Glutamate receptor 4 (Homo sapiens, UniProt P48058). Put plainly: Inhibition of GluR4 expressed in HEK293 cells. Type of assay: cell-based.
Glutamate receptor 4 (Homo sapiens, UniProt P48058), sequence (P48058 whole entry): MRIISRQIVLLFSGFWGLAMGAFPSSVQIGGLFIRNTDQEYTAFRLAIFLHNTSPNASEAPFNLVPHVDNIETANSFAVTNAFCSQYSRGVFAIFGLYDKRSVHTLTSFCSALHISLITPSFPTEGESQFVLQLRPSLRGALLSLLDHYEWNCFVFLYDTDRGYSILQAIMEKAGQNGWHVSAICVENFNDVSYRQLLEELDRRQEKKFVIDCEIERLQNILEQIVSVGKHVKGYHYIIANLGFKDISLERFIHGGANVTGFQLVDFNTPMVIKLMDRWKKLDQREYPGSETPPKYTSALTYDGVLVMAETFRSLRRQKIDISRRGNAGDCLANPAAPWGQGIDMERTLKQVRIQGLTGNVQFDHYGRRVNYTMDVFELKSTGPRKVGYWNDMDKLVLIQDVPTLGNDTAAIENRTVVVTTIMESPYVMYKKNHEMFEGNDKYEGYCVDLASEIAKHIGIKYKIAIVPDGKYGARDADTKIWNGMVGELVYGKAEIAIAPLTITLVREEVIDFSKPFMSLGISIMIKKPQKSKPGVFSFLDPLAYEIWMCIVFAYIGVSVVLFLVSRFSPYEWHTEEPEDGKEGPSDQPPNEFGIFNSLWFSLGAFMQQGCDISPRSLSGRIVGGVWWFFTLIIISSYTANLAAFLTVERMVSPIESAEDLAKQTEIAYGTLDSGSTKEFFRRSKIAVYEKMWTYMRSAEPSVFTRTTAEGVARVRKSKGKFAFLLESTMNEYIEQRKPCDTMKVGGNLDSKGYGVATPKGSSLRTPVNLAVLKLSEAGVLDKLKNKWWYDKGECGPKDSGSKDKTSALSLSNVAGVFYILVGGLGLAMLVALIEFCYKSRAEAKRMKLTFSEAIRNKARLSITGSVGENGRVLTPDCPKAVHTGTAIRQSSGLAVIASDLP
The species named for the next assay is Rattus norvegicus. Put plainly: Agonist activity at rat AMPA receptor assessed as change in EPSC amplitude. Type of assay: functional.
The nature of assay [5]: Agonist activity at AMPA receptor at 30 uM by FLIPR assay. In kind it is functional.
Assay [6] addresses T1, Glutamate receptor 2. Put plainly: Agonist activity at GluR2 receptor. In kind it is functional.
Assay [7] in a line: Agonist activity at AMPA receptor by FLIPR assay. In kind it is functional.
Assay [8] addresses T1, Glutamate receptor 2. Put plainly: Inhibition of GluR2 flop expressed in HEK cells. Type of assay: cell-based, HEK293.
A further assay has as its target Glutamate receptor 3 (Homo sapiens, UniProt P42263). Briefly: Inhibition of GluR3 expressed in HEK cells. In kind it is cell-based, HEK293.
Assay [9] can be described thus: Agonist activity at rat AMPA receptor assessed as AMPA-induced calcium uptake. In kind it is functional.
The target of assay [10] is Glutamate receptor AMPA 3/4 (Rattus norvegicus, UniProt P19492+P19493). Put plainly: Inhibition of GluR3/4 rat in hippocampal neuron. In kind it is tissue-based, Hippocampus.
Glutamate receptor AMPA 3/4 (Rattus norvegicus, UniProt P19492+P19493), sequence (P19492 whole entry): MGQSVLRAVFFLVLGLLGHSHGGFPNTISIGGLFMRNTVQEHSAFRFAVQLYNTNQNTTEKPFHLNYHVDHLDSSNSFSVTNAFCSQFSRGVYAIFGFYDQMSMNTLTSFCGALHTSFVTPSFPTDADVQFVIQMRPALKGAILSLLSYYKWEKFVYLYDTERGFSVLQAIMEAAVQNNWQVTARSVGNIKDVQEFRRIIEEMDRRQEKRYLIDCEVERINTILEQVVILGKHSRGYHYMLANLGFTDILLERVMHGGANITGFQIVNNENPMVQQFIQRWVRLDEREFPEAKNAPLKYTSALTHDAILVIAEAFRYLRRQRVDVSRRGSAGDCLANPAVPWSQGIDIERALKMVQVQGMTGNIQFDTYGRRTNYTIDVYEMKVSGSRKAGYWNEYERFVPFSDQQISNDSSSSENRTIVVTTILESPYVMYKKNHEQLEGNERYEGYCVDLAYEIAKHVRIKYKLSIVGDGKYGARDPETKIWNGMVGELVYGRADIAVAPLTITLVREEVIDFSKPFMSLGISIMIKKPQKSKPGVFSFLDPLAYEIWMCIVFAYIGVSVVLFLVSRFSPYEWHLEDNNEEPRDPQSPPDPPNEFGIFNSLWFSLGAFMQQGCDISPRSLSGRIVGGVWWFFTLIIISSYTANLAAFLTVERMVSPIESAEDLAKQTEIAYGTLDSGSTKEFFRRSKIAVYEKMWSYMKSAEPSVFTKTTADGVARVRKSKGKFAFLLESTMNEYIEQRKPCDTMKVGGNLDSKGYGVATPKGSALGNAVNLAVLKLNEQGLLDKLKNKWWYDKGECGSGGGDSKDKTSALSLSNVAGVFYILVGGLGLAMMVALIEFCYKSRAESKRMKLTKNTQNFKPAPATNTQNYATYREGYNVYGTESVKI
Glutamate receptor AMPA 3/4 (Rattus norvegicus, UniProt P19492+P19493), sequence (P19493 whole entry): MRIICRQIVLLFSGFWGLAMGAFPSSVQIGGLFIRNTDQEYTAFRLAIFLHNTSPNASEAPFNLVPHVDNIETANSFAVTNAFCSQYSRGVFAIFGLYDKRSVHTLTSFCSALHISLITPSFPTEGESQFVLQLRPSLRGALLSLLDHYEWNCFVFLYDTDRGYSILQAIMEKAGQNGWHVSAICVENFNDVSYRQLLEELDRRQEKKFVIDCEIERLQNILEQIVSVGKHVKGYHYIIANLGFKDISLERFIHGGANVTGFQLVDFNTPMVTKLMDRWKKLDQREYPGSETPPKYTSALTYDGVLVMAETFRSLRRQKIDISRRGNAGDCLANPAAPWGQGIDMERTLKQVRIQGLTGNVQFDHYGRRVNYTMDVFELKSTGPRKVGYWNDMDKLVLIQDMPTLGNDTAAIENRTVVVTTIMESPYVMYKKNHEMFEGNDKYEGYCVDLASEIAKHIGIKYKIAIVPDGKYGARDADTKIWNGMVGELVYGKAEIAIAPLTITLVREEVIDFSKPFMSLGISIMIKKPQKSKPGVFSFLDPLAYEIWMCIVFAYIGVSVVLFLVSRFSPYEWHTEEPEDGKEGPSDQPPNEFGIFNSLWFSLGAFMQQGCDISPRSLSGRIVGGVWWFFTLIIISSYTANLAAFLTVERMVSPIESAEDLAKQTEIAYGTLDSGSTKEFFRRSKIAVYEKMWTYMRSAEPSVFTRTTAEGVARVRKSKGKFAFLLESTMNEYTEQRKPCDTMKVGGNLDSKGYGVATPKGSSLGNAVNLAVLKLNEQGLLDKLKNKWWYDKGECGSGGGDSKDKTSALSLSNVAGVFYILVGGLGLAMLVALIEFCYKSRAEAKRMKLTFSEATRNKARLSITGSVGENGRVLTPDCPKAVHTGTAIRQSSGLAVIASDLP
The target of assay [11] is Glutamate receptor 4 (Rattus norvegicus, UniProt P19493). Put plainly: Inhibition of rat recombinant GluR4 in cells.
Glutamate receptor 4 (Rattus norvegicus, UniProt P19493), sequence (P19493 whole entry): as above
Assay [12] deals with T1, Glutamate receptor 2. Briefly: Inhibition of human recombinant GluR2.

Where “and” joins values, the source holds several entries; their conditions need not be identical. Equal entries are not always repeated.

Glutamate receptor AMPA 3/4 (Homo sapiens, UniProt P42263+P48058), sequence (P48058 whole entry): as the sequence (P48058 whole entry) above
Glutamate receptor AMPA 3/4 (Homo sapiens, UniProt P42263+P48058), sequence (P42263 whole entry): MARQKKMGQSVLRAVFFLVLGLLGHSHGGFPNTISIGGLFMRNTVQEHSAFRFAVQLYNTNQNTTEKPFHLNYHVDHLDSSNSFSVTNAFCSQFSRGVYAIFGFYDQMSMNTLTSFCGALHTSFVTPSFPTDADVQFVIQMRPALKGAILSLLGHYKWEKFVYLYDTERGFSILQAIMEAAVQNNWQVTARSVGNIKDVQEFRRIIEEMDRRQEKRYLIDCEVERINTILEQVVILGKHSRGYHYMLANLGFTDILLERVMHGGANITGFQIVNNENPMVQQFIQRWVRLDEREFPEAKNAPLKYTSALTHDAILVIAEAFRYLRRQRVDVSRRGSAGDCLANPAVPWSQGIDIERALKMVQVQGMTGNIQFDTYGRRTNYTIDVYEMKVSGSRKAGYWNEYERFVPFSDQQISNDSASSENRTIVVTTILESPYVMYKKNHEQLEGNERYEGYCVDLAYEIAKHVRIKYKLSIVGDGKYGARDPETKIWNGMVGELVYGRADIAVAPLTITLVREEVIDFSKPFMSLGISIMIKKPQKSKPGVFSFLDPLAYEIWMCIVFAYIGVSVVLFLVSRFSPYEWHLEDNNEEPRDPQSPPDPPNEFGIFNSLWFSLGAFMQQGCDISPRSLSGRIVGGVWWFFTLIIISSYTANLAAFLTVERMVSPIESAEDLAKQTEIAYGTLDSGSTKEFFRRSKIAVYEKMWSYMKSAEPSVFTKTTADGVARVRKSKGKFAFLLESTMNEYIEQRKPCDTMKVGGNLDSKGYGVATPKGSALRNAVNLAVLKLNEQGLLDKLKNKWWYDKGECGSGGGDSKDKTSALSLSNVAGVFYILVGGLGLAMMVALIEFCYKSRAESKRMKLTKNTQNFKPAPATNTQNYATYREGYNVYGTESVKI
Glutamate receptor 1, sequence (P42261 whole entry): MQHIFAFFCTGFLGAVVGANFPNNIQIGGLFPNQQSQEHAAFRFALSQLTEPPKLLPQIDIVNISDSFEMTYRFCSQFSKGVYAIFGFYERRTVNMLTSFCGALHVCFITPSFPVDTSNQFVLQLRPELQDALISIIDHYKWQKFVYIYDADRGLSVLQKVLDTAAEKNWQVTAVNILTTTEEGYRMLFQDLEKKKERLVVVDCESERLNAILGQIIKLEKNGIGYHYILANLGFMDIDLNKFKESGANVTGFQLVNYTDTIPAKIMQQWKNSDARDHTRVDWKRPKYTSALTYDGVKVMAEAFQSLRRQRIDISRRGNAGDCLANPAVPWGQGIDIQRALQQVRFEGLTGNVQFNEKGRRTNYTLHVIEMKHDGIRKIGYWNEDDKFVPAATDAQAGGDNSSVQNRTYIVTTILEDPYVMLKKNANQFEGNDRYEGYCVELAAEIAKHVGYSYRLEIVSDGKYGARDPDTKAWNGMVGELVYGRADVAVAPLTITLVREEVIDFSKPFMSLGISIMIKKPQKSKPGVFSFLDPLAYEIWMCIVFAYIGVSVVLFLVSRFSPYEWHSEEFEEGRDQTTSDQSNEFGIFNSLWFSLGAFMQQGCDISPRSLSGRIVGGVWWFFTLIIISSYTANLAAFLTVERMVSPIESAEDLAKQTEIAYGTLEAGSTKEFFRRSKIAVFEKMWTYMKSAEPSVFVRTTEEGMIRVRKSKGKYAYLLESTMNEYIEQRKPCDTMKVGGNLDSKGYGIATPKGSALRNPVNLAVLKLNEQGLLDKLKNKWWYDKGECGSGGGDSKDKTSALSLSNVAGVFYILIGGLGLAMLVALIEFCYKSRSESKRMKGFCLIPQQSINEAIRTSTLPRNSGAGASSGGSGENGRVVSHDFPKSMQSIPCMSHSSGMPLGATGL
Glutamate receptor 3, sequence (P42263 whole entry): as the sequence (P42263 whole entry) above

In general, EC50 refers to the concentration that produces a half-maximal response. On Glutamate receptor 1, `CC(C)S(=O)(=O)NCCCCCCCCNS(=O)(=O)C(C)C` yielded a concentration for a half-maximal effect (EC50) of 0.91 µM.

Consider `CC1(C)CC(=O)C2=C(C1)OC(N)=C(C#N)C2c1ccc2ccccc2c1` (stereo unspecified), for which the EC2 in assay [1] came out at 1.6 µM. The compound further displayed a concentration giving a half-maximal response (EC50) in assay [2] of 1.6 µM.

The term inhibition denotes the drop in the measured response relative to a control, in per cent. Read a high inhibition as a response far below the control. On Glutamate receptor 2 [3], `CC(CNS(=O)(=O)C(C)C)c1ccc(Br)cc1` (stereo unspecified) registered an inhibition of 26%.

Consider `CC(CNS(C)(=O)=O)c1ccc(C(C)(C)C)cc1` (stereo unspecified), for which the EC50 at Glutamate receptor 4 [4] turned out to be 1.2 µM.

As to `CC(C)S(=O)(=O)N[C@@H]1CCC[C@@H]1c1ccc(I)cc1`, at Glutamate receptor 4 [4], the EC50 was found to be 0.23 µM.

As for `COCc1cccc(C(=O)N2CCCCC2)c1`, the Activity in the assay filed under Rattus norvegicus is 25%.

On to `O=C1c2cc3nnn(CCc4cccc(F)c4)c(=O)c3cc2OCN1C1CC1`, for which the EC2 in assay [1] came out at 0.1 µM.

In the case of `O=C(c1ccc2nonc2c1)N1CCCCC1` [FARAMPATOR], the 50% effective concentration (EC50) in assay [2] turned out to be 14 µM.

The compound `CC(=O)c1s/c(=N\c2ccc(OC(F)(F)F)cc2)n(CCO)c1C` gave an Activity in [5] of 15%. Moreover, on Glutamate receptor 2 [6], the EC50 is < 200 µM.

As for `CC(CNS(=O)(=O)C(C)C)c1ccc(-c2ccc(C#N)cc2)cc1` (stereo unspecified), the concentration for a half-maximal effect (EC50) in assay [7] was determined as 0.29 µM; at Glutamate receptor 2 [8] it was 1.44 µM; at Glutamate receptor 2 [6] it was 0.15 µM; at Glutamate receptor 3 it was 1.66 µM; on Glutamate receptor 1 it was 5.65 µM.

Consider `COc1ccc(C(=O)N2CCCC2=O)cc1`, for which the EC50 in [9] is > 100 µM; in [2] it was > 1000 µM.

On to `O=C(c1ccc2nccnc2c1)N1CCCCC1` [CX516], for which the Activity in the assay filed under Rattus norvegicus is 68%. The EC50 is 156 µM and > 1000 µM at Glutamate receptor 4 [4]; 95 µM in [10].

With `O=S1(=O)N[C@H]2CCCN2c2ccc(Cl)cc21`, in assay [1], the EC2 amounted to 60 µM.

`C[C@H](CNS(C)(=O)=O)c1ccc(-c2ccc([C@@H](C)CNS(C)(=O)=O)cc2)cc1`: the EC50 on Glutamate receptor 4 [11] stood at 0.87 µM.

In turn, `CC(C)S(=O)(=O)NC[C@H](C)c1ccc(-c2ccc(CCNS(C)(=O)=O)cc2)cc1` [MIBAMPATOR] returned an EC50 at Glutamate receptor 4 [4] of 0.15 µM.

`CC(C)S(=O)(=O)NCCCCCCCNS(=O)(=O)C(C)C`: the response at Glutamate receptor 1 was half-maximal at 2.88 µM (EC50).

As for `CCN1CC[C@@H](c2ccc(-c3ccccc3)cc2)[C@H](NS(=O)(=O)C(C)C)C1`, in assay [7], the concentration for a half-maximal effect (EC50) was < 10 µM.

Consider `O=C1c2cc3c(cc2OC2CCCN12)OCCO3` (stereo unspecified), for which the EC50 was 21 µM on Glutamate receptor 1 and 43.7 µM in [10].

For the compound `CN(C)C(=O)c1ccc(-n2nc(C(F)(F)F)c3c2CCOC3)cc1`, in [5], the Activity turned out to be 14%. Further, the half-maximal effective concentration (EC50) on Glutamate receptor 2 [12] is < 300 µM.

In the case of `CC(C)S(=O)(=O)N[C@H]1Cc2ccc(-n3nc(C(F)(F)F)c4c3CCCC4)cc2C1`, the EC50 on Glutamate receptor 2 [12] is < 300 µM.

For the compound `O=C(Cn1nc(C(F)(F)F)c2c1CCCC2)Nc1sc2c(c1C(=O)NCCc1ccccn1)CCCC2`, the EC50 at Glutamate receptor 1 was < 10 µM.

Turning to `O=C(c1ccc2c(c1)OCCO2)N1CCCCC1`, the 50% effective concentration (EC50) in [10] came out at 1600 µM.

As for `O=C1CCCN1[C@H]1Cc2ccc(-n3cc(C4CC4)c(C(F)(F)F)n3)cc2C1`, on Glutamate receptor 2 [12], the EC50 is < 300 µM.

In the case of `CC(C)S(=O)(=O)N[C@@H]1CN(C)C[C@@H]1c1ccc(-c2ccc(N(C)S(C)(=O)=O)cc2)cc1`, on Glutamate receptor 2 [12], the concentration for a half-maximal effect (EC50) is 1.6 µM.

On to `CC(C)S(=O)(=O)N[C@@H]1CCC[C@@H]1c1ccc(Br)cc1`, for which the half-maximal effective concentration (EC50) at Glutamate receptor 2 [6] and on Glutamate receptor 4 [4] was 0.52 µM in each case.

As for `O=C1CCCN1Cc1ccc(-n2nc(C(F)(F)F)c3c2COCC3)cc1F`, the EC50 at Glutamate receptor 2 [12] was < 300 µM.

As for `CC(C)S(=O)(=O)NCCCCCCCCCNS(=O)(=O)C(C)C`, at Glutamate receptor 1, it took 0.66 µM to reach a half-maximal effect (EC50).

Turning to `C[C@@H](CNS(C)(=O)=O)c1ccccc1`, on Glutamate receptor 2 [8], the response was half-maximal at 1980 µM (EC50).

In the case of `NS(=O)(=O)c1cc2c(cc1Cl)NC(C1CC3C=CC1C3)NS2(=O)=O` (stereo unspecified) [CYCLOTHIAZIDE], the EC2 in [1] is 1.6 µM.
